Test results reported in patent US20250296971A1, “GASTRIC INHIBITORY PEPTIDE RECEPTOR LIGANDS” (priority 2021, published 2025).
*1 amine or outer side, *2 acyl side, *3 side chain or, on linkers, in order; H or OH if unused. Where a SMILES comes first, the peptide text is derived from it. Bridges are numbered along the chain shown (N, C = ends). [ ]: non-standard residue; d: D form. The star is where a group is joined. X12 = O=C(O)CN1CCN(CC(=O)O)CCN(CC(=O)N[C@H](CCC(=O)NC[C@H](O)[C@@H](O)[C@H](O)[C@H](O)CO)C(=O)*)CCN(CC(=O)O)CC1; DOTA(In) = O=C1CN2CCN3CCN(CC(=O)*)CCN(CC2)CC(=O)[O][In]([O]1)[O]C(=O)C3; X3 = O=C(O)CN1CCN(CC(=O)O)CCN(CC(=O)NCCCOCCOCCOCCCN*)CCN(CC(=O)O)CC1; NH(1-deoxy-D-glucityl) = OC[C@@H](O)[C@@H](O)[C@H](O)[C@@H](O)CN*; Trp(5-Br) = N[C@@H](Cc1c[nH]c2ccc(Br)cc12)C(=O)O; Trp(5-Cl) = N[C@@H](Cc1c[nH]c2ccc(Cl)cc12)C(=O)O; Pyridine(2,6-diCH2) = c1cc(C[*:1])nc(C[*:2])c1; Pro(4S-NH2) = N[C@@H]1CN[C@H](C(=O)O)C1; Pro(4R-NH2) = N[C@H]1CN[C@H](C(=O)O)C1; Glutaryl = O=C(CCCC(=O)[*:2])[*:1]; X6 = c1cc(CSCCN[*:2])nc(C[*:1])c1; X7 = c1cc(CSCCN[*:2])cc(C[*:1])c1; Hyp = O=C(O)[C@@H]1C[C@@H](O)CN1; X1 = O=C(CN1CCC(N[*:1])CC1)[*:2]; Suc = O=C(CCC(=O)[*:2])[*:1]; hSer = N[C@@H](CCO)C(=O)O; Api = NC1(C(=O)O)CCNCC1; Thp = NC1(C(=O)O)CCOCC1; Aib = CC(C)(N)C(=O)O

Experiments:
[1] = molecular target: T1, GIPR (CHO-K1-hGIPR cells) (Homo sapiens, UniProt P48546); test: FACS binding assay; settings: competition with 20 nM GIP-057, 4° C., 1 hour, read-out: pIC50 Category (converted)
T1 construct: host or cells: CHO-K1
T1 sequence (P48546 22-466): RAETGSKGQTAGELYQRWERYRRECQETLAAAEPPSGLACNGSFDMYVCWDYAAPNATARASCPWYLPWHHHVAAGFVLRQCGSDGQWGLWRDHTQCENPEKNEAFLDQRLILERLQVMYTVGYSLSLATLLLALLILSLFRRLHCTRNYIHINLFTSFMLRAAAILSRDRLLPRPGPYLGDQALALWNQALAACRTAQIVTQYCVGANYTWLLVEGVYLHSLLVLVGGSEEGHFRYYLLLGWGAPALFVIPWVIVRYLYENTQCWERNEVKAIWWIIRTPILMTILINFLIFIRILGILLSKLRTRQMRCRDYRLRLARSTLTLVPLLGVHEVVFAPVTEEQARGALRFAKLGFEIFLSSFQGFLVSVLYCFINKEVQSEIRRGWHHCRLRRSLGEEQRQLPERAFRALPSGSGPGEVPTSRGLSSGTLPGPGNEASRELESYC
Method in brief: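 Median fluorescence in the APC channel, measured on washed CHO-K1 cells overexpressing human GIPR, was fitted by four-parameter logistic regression against peptide concentration to yield EC50 or IC50 values. Secondary labelling used APC-streptavidin (1 μg/mL, 30 min, ice).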

[2] = molecular target: T2, human GIP receptor (bioGIPR) (Homo sapiens, UniProt P48546); test: Surface plasmon resonance (SPR) based binding assay; settings: Single Cycle Kinetic mode, 25° C.; for Kd: SPR, 1:1 Langmuir binding model, read-out: pKD Category (converted); for t1/2 Category: SPR dissociation half-life
T2 construct: Biotinylate extracellular of the human GIP receptor (bioGIPR, Proteros biostructures GmbH, lot #02/2b); purchased Proteros biostructures GmbH lot #02/2b
T2 sequence (P48546 22-138 limits assumed): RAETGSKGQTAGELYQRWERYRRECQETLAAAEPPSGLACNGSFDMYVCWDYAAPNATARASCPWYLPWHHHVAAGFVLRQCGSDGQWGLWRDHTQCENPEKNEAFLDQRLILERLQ
Method in brief: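 Binding was measured at 25 °C by single-cycle kinetics against a reference flow cell, with blank-run and drift correction, after capturing biotinylated GIPR extracellular domain to ~3500 RU. Running buffer: HBST, 0.1% DMSO. A 1:1 Langmuir model gave kinetic rates, KD, t1/2 and pKD.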

Row | IC50 [1] [nM] | Kd [2] [nM] | t1/2 Category [2] | Structure (SMILES)
1 | < 10 | < 1 | A (t1/2 values>15 min) | CC[C@H](C)[C@@H]1NC(=O)[C@H](CC(C)C)NC(=O)C2(CCOCC2)NC(=O)[C@@H](NC(=O)[C@@H](CC(C)C)NC(=O)[C@H](CCC(=O)O)NC(=O)[C@@H]2C[C@@H](O)CN2C(=O)[C@H](Cc2c[nH]c3ccc(Br)cc23)NC(=O)[C@H](Cc2c[nH]c3ccccc23)NC(=O)[C@H](CCO)NC(C)=O)CSCc2cccc(n2)CSC[C@@H](C(N)=O)NC1=O [GIP-197, Ac-Hse-Trp-5Brw-Hyp-Glu-leu-[Cys(2Lut)-Thp-Leu-Ile-Cys]-NH2] (Ac-[hSer]W[Trp(5-Br)][Hyp]E[dL]C[Thp]LIC-NH2; linker 7-11 via Pyridine(2,6-diCH2))
2 | < 10 | < 1 | A (t1/2 values>15 min) | CC[C@H](C)[C@@H]1NC(=O)[C@H](CC(C)C)NC(=O)C2(CCNCC2)NC(=O)[C@@H](NC(=O)[C@@H](CC(C)C)NC(=O)[C@H](CCC(=O)O)NC(=O)[C@@H]2CCCN2C(=O)[C@H](Cc2c[nH]c3ccc(Cl)cc23)NC(=O)[C@H](Cc2c[nH]c3ccccc23)NC(=O)[C@H](CC(=O)O)NC(=O)CCC(=O)NCCCOCCOCCOCCCNC(=O)CN2CCN(CC(=O)O)CCN(CC(=O)O)CCN(CC(=O)O)CC2)CSCc2cccc(n2)CSCCNC1=O [GIP-119, DOTA-Ttds-Asp-Trp-5Clw-Pro-Glu-leu-[Cys(2Lut)-Apc-Leu-Ile-AET]] ({X3-Suc}-DW[Trp(5-Cl)]PE[dL]C[Api]LI; linker 7-C via X6)
3 | < 10 | < 1 | A (t1/2 values>15 min) | CC[C@H](C)[C@@H]1NC(=O)[C@H](CC(C)C)NC(=O)C(C)(C)NC(=O)[C@@H](NC(=O)[C@@H](CC(C)C)NC(=O)[C@H](CCC(=O)O)NC(=O)[C@@H]2C[C@H](N)CN2C(=O)[C@H](Cc2c[nH]c3ccc(Cl)cc23)NC(=O)[C@H](Cc2c[nH]c3ccccc23)NC(=O)[C@H](CC(=O)O)NC(=O)CCC(=O)NCCCOCCOCCOCCCNC(=O)CN2CCN(CC(=O)O)CCN(CC(=O)O)CCN(CC(=O)O)CC2)CSCc2cccc(c2)CSCCNC1=O [GIP-096, DOTA-Ttds-Asp-Trp-5Clw-4Ap-Glu-leu-[Cys(3MeBn)-Aib-Leu-Ile-AET]] ({X3-Suc}-DW[Trp(5-Cl)][Pro(4S-NH2)]E[dL]C[Aib]LI; linker 7-C via X7)

Row | Structure (SMILES) | IC50 [1] [nM] | Kd [2] [nM] | t1/2 Category [2]
4 | CC[C@H](C)[C@@H]1NC(=O)[C@H](CC(C)C)NC(=O)C2(CCOCC2)NC(=O)[C@@H](NC(=O)[C@@H](CC(C)C)NC(=O)[C@H](CCC(=O)O)NC(=O)[C@@H]2C[C@@H](O)CN2C(=O)[C@H](Cc2c[nH]c3ccc(Cl)cc23)NC(=O)[C@H](Cc2c[nH]c3ccccc23)NC(=O)[C@H](CC(=O)O)NC(=O)CN2CCC(NC(=O)CN3CCN4CCN5CCN(CC3)CC(=O)[O][In]([O]C(=O)C4)[O]C(=O)C5)CC2)CSCc2cccc(n2)CSCCNC1=O [GIP-155, InDOTA-APAc-Asp-Trp-5Clw-Hyp-Glu-leu-[Cys(2Lut)-Thp-Leu-Ile-AET]] ({DOTA(In)}-[X1]DW[Trp(5-Cl)][Hyp]E[dL]C[Thp]LI; linker 8-C via X6) | < 10 | < 1 | –
5 | CC[C@H](C)[C@@H]1NC(=O)[C@H](CC(C)C)NC(=O)C2(CCN(C(=O)[C@@H](CCC(=O)NC[C@H](O)[C@@H](O)[C@H](O)[C@H](O)CO)NC(=O)CN3CCN(CC(=O)O)CCN(CC(=O)O)CCN(CC(=O)O)CC3)CC2)NC(=O)[C@@H](NC(=O)[C@@H](CC(C)C)NC(=O)[C@H](CCC(=O)O)NC(=O)[C@@H]2C[C@@H](N)CN2C(=O)[C@H](Cc2c[nH]c3ccc(Cl)cc23)NC(=O)[C@H](Cc2c[nH]c3ccccc23)NC(=O)[C@H](CC(=O)O)NC(=O)CN2CCC(NC(=O)CCCC(=O)NC[C@H](O)[C@@H](O)[C@H](O)[C@H](O)CO)CC2)CSCc2cccc(n2)CSC[C@@H](C(=O)NC2CCN(CC(=O)N[C@H](CCC(=O)NC[C@H](O)[C@@H](O)[C@H](O)[C@H](O)CO)C(N)=O)CC2)NC1=O [GIP-008, AGLU-Glutar-APAc-Asp-Trp-5Clw-Tap-Glu-leu-[Cys(2Lut)-Apc(DOTA-glu(AGLU))-Leu-Ile-Cys]-APAc-glu(AGLU)-NH2] ({NH(1-deoxy-D-glucityl)-Glutaryl}-[X1]DW[Trp(5-Cl)][Pro(4R-NH2)]E[dL]C[Api](X12)LIC[X1][dE](NH(1-deoxy-D-glucityl))-NH2; linker 8-12 via Pyridine(2,6-diCH2)) | < 10 | < 1 | A (t1/2 values>15 min)
